The text below walks through data of patent publication US20150064724A1, “BIOMARKERS FOR PROGNOSES OF PULMONARY DISEASES” (University of Pittsburgh - of the Commonwealth System of …, priority 2009, published 2015).

This assay concerns CD4+CD28null T cells from lung transplant recipients with BOS. Nature of the assay: Inhibition of proliferation by cyclosporine A (BrdU incorporation, flow cytometry). In kind it is cell-based, human. As to conditions: preliminary findings, n=2 subjects; compared with CD4+CD28+ cells. As to the method:
Segregated CD28+ and CD28null CD4 T-cell subpopulations were individually cultured in duplicate wells coated with anti-CD3 monoclonal antibody (OKT3) (see above). Autologous nurse cells, positively selected during the initial CD4 T-cell isolations (see above) were added in a 3:1 nurse cell:CD4 T-cell ratio. In order to eliminate potential confounding by CD4dim monocytes, all CD4+ cells were depleted from the nurse cells (<<1% residual), prior to their use in cultures, by positive selection with anti-CD4-coated magnetic beads (Invitrogen, Carlsbad, Calif.). Cyclosporine (Novartis, East Hanover, N.J.) to a final concentration of 100 ng/ml was added to half the wells. Proliferation within the respective CD4 subpopulations were measured by bromodeoxyuridine (BrdU) incorporation, using reagents and methods supplied in a kit (BD Pharmingen). In brief, BrdU in a final concentration of 10 μM was added to cultures two days prior to their harvests. After 5±1 days of culture, cells were harvested from wells and stained with anti-CD4, fixed and permeabilized, and then incubated with anti-BrdU and 7-amino-actinomycin (7-AAD). The proportion of proliferating CD4+ T cells (BrdU+) among the viable cells (≧diploid DNA content) was determined by flow cytometry.
Background: Dividing cells build labelled thymidine or BrdU into new DNA.

For `C=CC[C@@H]1/C=C(\C)C[C@H](C)C[C@H](OC)[C@H]2O[C@@](O)(C(=O)C(=O)N3CCCC[C@H]3C(=O)O[C@H](/C(C)=C/[C@@H]3CC[C@@H](O)[C@H](OC)C3)[C@H](C)[C@@H](O)CC1=O)[C@H](C)C[C@@H]2OC` [tacrolimus], the “resistance of CD4+CD28null T cells to the drug” value is reported as “relatively resistant”.
